The record followed here is patent publication US8889712B2, “IAP antagonists” (Bristol-Myers Squibb Company, priority 2012, dated 2014).

The target in one assay is T1, XIAP BIR3 (Homo sapiens, UniProt P98170).
T1 construct: His-BIR3 (241-356, XIAP)
Put plainly: XIAP-BIR3/SMAC Homogeneous Time Resolved Fluorescence (HTRF) Assay. The class given is binding. Put shortly: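 Competition HTRF between XIAP-BIR3 and SMAC; reaction 60 min at room temperature, then anti-6×His-terbium Fab detection for a further 30 min.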

For another assay, the target named is T2, XIAP BIR2-3 (Homo sapiens, UniProt P98170, C202A/C213G).
T2 construct: His-BIR2-3 (125-356, C202A/C213G, XIAP)
Put plainly: XIAP-BIR2-3 dimeric SMAC Peptide Homogeneous Time Resolved Fluorescence (HTRF) Assay. The class given is binding. Here is the method: B. […] Assays were performed in black, flat-bottom, 384-well plates. […] Compounds were dissolved at 3 mM in dimethylsulfoxide (DMSO) and evaluated at eleven serially diluted concentrations. IC50 and Ki values were derived by non-linear regression analysis.
In general terms: Time-resolved FRET reads energy transfer from a long-lived donor to a nearby acceptor.

The mark [1] stands for this setting: 1 nM N-His-BIR3 (241-356, XIAP), 5 nM fluorescein labeled SMAC peptide, HTRF signal, read-out: XIAP BIR3 IC50.
The mark [2] stands for this setting: 0.5 nM N-His-BIR2-3 (125-356, C202A/C213G, XIAP), 20 nM fluorescein labeled dimeric SMAC peptide, HTRF signal, read-out: XIAP BIR2-3 IC50.

Read-outs that look alike come from different tables or passages of the source.

T2 sequence (P98170 125-356 C202A/C213G): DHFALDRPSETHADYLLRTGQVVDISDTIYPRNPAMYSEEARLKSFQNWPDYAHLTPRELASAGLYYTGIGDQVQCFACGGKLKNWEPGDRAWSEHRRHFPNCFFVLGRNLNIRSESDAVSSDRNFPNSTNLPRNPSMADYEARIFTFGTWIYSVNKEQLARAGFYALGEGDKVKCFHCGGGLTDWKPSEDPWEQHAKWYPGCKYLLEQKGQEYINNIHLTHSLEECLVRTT
T1 sequence (P98170 241-356): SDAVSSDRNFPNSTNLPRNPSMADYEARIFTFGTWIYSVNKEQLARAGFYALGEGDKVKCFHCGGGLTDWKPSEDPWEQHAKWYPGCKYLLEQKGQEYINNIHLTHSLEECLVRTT

As to `CN[C@@H](C)C(=O)N[C@H](C(=O)N1Cc2cc([C@H]3C[C@@H](C(=O)N[C@@H]4CCCc5ccccc54)N(C(=O)[C@@H](NC(=O)[C@H](C)NC)C(C)(C)C)C3)ccc2C[C@H]1C(=O)N[C@@H](Cc1ccccc1)C(=O)OC)C(C)(C)C` [Example 40, (S)-Methyl 2-((S)-2-((S)-3,3-dimethyl-2-((S)-2-(methylamino)propanamido)butanoyl)-7-((3R,5S)-1-((S)-3,3-dimethyl-2-((S)-2-(methylamino)propanamido)butanoyl)-5-(((R)-1,2,3,4-tetrahydronaphthalen-1-yl)carbamoyl)pyrrolidin-3-yl)-1,2,3,4-tetrahydroisoquinoline-3-carboxamido)-3-phenylpropanoate], the IC50 – broadly, the concentration at which inhibition is half-maximal – on XIAP BIR3 (setting [1]) came to 1.5 nM; on XIAP BIR2-3 (setting [2]), 0.9 nM.
`CN[C@@H](C)C(=O)N[C@H](C(=O)N1Cc2cc([C@H]3C[C@@H](C(=O)N[C@@H]4CCCc5ccccc54)N(C(=O)[C@@H](NC(=O)[C@H](C)NC)C(C)(C)C)C3)ccc2C[C@H]1C(=O)N[C@@H](Cc1ccccc1)C(=O)O)C(C)(C)C` [Example 41, (S)-2-((S)-2-((S)-3,3-Dimethyl-2-((S)-2-(methylamino)propanamido)butanoyl)-7-((3R,5S)-1-((S)-3,3-dimethyl-2-((S)-2-(methylamino)propanamido)butanoyl)-5-(((R)-1,2,3,4-tetrahydronaphthalen-1-yl)carbamoyl)pyrrolidin-3-yl)-1,2,3,4-tetrahydroisoquinoline-3-carboxamido)-3-phenylpropanoic acid]: the IC50 at XIAP BIR3 (setting [1]) was determined as 4.6 nM; at XIAP BIR2-3 (setting [2]), 1.5 nM.
`CN[C@@H](C)C(=O)N[C@H](C(=O)N1Cc2cc([C@H]3C[C@@H](C(=O)N[C@@H]4CCCc5ccccc54)N(C(=O)[C@@H](NC(=O)[C@H](C)NC)C(C)(C)C)C3)ccc2C[C@H]1C(=O)N[C@@H](Cc1ccccc1)C(=O)N(C)C)C(C)(C)C` [Example 42, (S)-2-((S)-3,3-Dimethyl-2-((S)-2-(methylamino)propanamido)butanoyl)-7-((3R,5S)-1-((S)-3,3-dimethyl-2-((S)-2-(methylamino)propanamido)butanoyl)-5-(((R)-1,2,3,4-tetrahydronaphthalen-1-yl)carbamoyl)pyrrolidin-3-yl)-N—((S)-1-(dimethylamino)-1-oxo-3-phenylpropan-2-yl)-1,2,3,4-tetrahydroisoquinoline-3-carboxamide]: the half-inhibitory concentration (IC50) at XIAP BIR3 (setting [1]) was found to be 1.6 nM; on XIAP BIR2-3 (setting [2]), 1.2 nM.
For `CN[C@@H](C)C(=O)N[C@H](C(=O)N1Cc2cc([C@H]3C[C@@H](C(=O)N[C@@H]4CCCc5ccccc54)N(C(=O)[C@@H](NC(=O)[C@H](C)NC)C(C)(C)C)C3)ccc2C[C@H]1C(=O)N[C@@H](Cc1ccccc1)C(=O)N1CCOCC1)C(C)(C)C` [Example 43, (S)-2-((S)-3,3-Dimethyl-2-((S)-2-(methylamino)propanamido)butanoyl)-7-((3R,5S)-1-((S)-3,3-dimethyl-2-((S)-2-(methylamino)propanamido)butanoyl)-5-(((R)-1,2,3,4-tetrahydronaphthalen-1-yl)carbamoyl)pyrrolidin-3-yl)-N—((S)-1-morpholino-1-oxo-3-phenylpropan-2-yl)-1,2,3,4-tetrahydroisoquinoline-3-carboxamide] the same measures were 2 nM and 1.3 nM.
The corresponding values for `CN[C@@H](C)C(=O)N[C@H](C(=O)N1Cc2cc([C@H]3C[C@@H](C(=O)N[C@@H]4CCCc5ccccc54)N(C(=O)[C@@H](NC(=O)[C@H](C)NC)C(C)(C)C)C3)ccc2C[C@H]1C(=O)N[C@H](COCCO)Cc1ccccc1)C(C)(C)C` [Example 44, (S)-2-((S)-3,3-Dimethyl-2-((S)-2-(methylamino)propanamido)butanoyl)-7-((3R,5S)-1-((S)-3,3-dimethyl-2-((S)-2-(methylamino)propanamido)butanoyl)-5-(((R)-1,2,3,4-tetrahydronaphthalen-1-yl)carbamoyl)pyrrolidin-3-yl)-N—((S)-1-(2-hydroxyethoxy)-3-phenylpropan-2-yl)-1,2,3,4-tetrahydroisoquinoline-3-carboxamide] are 10.3 nM and 17.4 nM.
The corresponding values for `CN[C@@H](C)C(=O)N[C@H](C(=O)N1Cc2cc([C@H]3C[C@@H](C(=O)N[C@@H]4CCCc5ccccc54)N(C(=O)[C@@H](NC(=O)[C@H](C)NC)C(C)(C)C)C3)ccc2C[C@H]1C(=O)N[C@@H](Cc1ccccc1)c1noc(C)n1)C(C)(C)C` [Example 45, (S)-2-((S)-3,3-Dimethyl-2-((S)-2-(methylamino)propanamido)butanoyl)-7-((3R,5S)-1-((S)-3,3-dimethyl-2-((S)-2-(methylamino)propanamido)butanoyl)-5-(((R)-1,2,3,4-tetrahydronaphthalen-1-yl)carbamoyl)pyrrolidin-3-yl)-N—((S)-1-(5-methyl-1,2,4-oxadiazol-3-yl)-2-phenylethyl)-1,2,3,4-tetrahydroisoquinoline-3-carboxamide] are 9.2 nM and 4.2 nM.
With `CN[C@@H](C)C(=O)N[C@H](C(=O)N1C[C@@H](c2ccc3c(c2)CN(C(=O)[C@@H](NC(=O)[C@H](C)NC)C(C)(C)C)[C@H](C(=O)N[C@@H]2CCCc4ccccc42)C3)C[C@H]1C(=O)N[C@@H](Cc1ccccc1)C(N)=O)C(C)(C)C` [Example 46, (S)-7-((3R,5S)-5-(((S)-1-Amino-1-oxo-3-phenylpropan-2-yl)carbamoyl)-1-((S)-3,3-dimethyl-2-((S)-2-(methylamino)propanamido)butanoyl)pyrrolidin-3-yl)-2-((S)-3,3-dimethyl-2-((S)-2-(methylamino)propanamido)butanoyl)-N—((R)-1,2,3,4-tetrahydronaphthalen-1-yl)-1,2,3,4-tetrahydroisoquinoline-3-carboxamide], the IC50 on XIAP BIR3 (setting [1]) turned out to be 10.2 nM; on XIAP BIR2-3 (setting [2]), 1.6 nM.
The corresponding values for `CN[C@@H](C)C(=O)N[C@H](C(=O)N1C[C@@H](c2ccc3c(c2)CN(C(=O)[C@@H](NC(=O)[C@H](C)NC)C(C)(C)C)[C@H](C(=O)N[C@@H]2CCCc4ccccc42)C3)C[C@H]1C(=O)N[C@@H](Cc1ccccc1)C(=O)N1CCOCC1)C(C)(C)C` [Example 47, (S)-2-((S)-3,3-Dimethyl-2-((S)-2-(methylamino)propanamido)butanoyl)-7-((3R,5S)-1-((S)-3,3-dimethyl-2-((S)-2-(methylamino)propanamido)butanoyl)-5-(((S)-1-morpholino-1-oxo-3-phenylpropan-2-yl)carbamoyl)pyrrolidin-3-yl)-N-((R)-1,2,3,4-tetrahydronaphthalen-1-yl)-1,2,3,4-tetrahydroisoquinoline-3-carboxamide] are 17.5 nM and 2.4 nM.
With `CN[C@@H](C)C(=O)N[C@H](C(=O)N1C[C@@H](c2ccc3c(c2)CN(C(=O)[C@@H](NC(=O)[C@H](C)NC)C(C)(C)C)[C@H](C(=O)N[C@@H]2CCCc4ccccc42)C3)C[C@H]1C(=O)N[C@@H](Cc1ccccc1)C(=O)NS(=O)(=O)c1ccccc1)C(C)(C)C` [Example 48, (S)-2-((S)-3,3-Dimethyl-2-((S)-2-(methylamino)propanamido)butanoyl)-7-((3R,5S)-1-((S)-3,3-dimethyl-2-((S)-2-(methylamino)propanamido)butanoyl)-5-(((S)-1-oxo-3-phenyl-1-(phenylsulfonamido)propan-2-yl)carbamoyl)pyrrolidin-3-yl)-N-((R)-1,2,3,4-tetrahydronaphthalen-1-yl)-1,2,3,4-tetrahydroisoquinoline-3-carboxamide], the results for the IC50 against XIAP BIR3 and on XIAP BIR2-3 were 0.8 nM and 0.7 nM, respectively.
In the case of `CN[C@@H](C)C(=O)N[C@H](C(=O)N1C[C@@H](c2ccc3c(c2)CN(C(=O)[C@@H](NC(=O)[C@H](C)NC)C(C)(C)C)[C@H](C(=O)N[C@@H]2CCCc4ccccc42)C3)C[C@H]1C(=O)N[C@@H](Cc1ccccc1)C(=O)NS(=O)(=O)c1ccc2ccccc2c1)C(C)(C)C` [Example 49, (S)-2-((S)-3,3-Dimethyl-2-((S)-2-(methylamino)propanamido)butanoyl)-7-((3R,5S)-1-((S)-3,3-dimethyl-2-((S)-2-(methylamino)propanamido)butanoyl)-5-(((S)-1-(naphthalene-2-sulfonamido)-1-oxo-3-phenylpropan-2-yl)carbamoyl)pyrrolidin-3-yl)-N-((R)-1,2,3,4-tetrahydronaphthalen-1-yl)-1,2,3,4-tetrahydroisoquinoline-3-carboxamide], the IC50 on XIAP BIR3 (setting [1]) was found to be 0.4 nM; on XIAP BIR2-3 (setting [2]), 0.5 nM.
In the case of `CN[C@@H](C)C(=O)N[C@H](C(=O)N1C[C@@H](c2ccc3c(c2)CN(C(=O)[C@@H](NC(=O)[C@H](C)NC)C(C)(C)C)[C@H](C(=O)N[C@@H]2CCCc4ccccc42)C3)C[C@H]1C(=O)N[C@@H](Cc1ccccc1)C(=O)NS(=O)(=O)C1CC1)C(C)(C)C` [Example 50, (S)-7-((3R,5S)-5-(((S)-1-(Cyclopropanesulfonamido)-1-oxo-3-phenylpropan-2-yl)carbamoyl)-1-((S)-3,3-dimethyl-2-((S)-2-(methylamino)propanamido)butanoyl)pyrrolidin-3-yl)-2-((S)-3,3-dimethyl-2-((S)-2-(methylamino)propanamido)butanoyl)-N-((R)-1,2,3,4-tetrahydronaphthalen-1-yl)-1,2,3,4-tetrahydroisoquinoline-3-carboxamide], the IC50 at XIAP BIR3 (setting [1]) came out at 0.9 nM; on XIAP BIR2-3 (setting [2]) it was 1.2 nM.
